Measurements from patent publication US20050250737A1, “Therapeutic ophthalmic compositions containing retinal friendly excipients and related methods” (Allergan, Inc., priority 2003, published 2005).
Entries after “also recorded” stand apart in the source; their conditions may differ.

What was measured:
[1] = pH of excipient-containing incubating solutions; format: physicochemical
Description: (§1) For each concentration of tested compound, pH and osmolarity parameters were measured.

[2] = Osmolarity of excipient-containing incubating solutions; format: physicochemical
Description: Osmolarity was measured using osmometer type 13/13DR from Roebling (Berlin, GR).
as §1

ARPE-19 cells [3] = test: in vitro; settings: for Reduction of cell survival: 0.1% (w/v), 24, 48 and 72 hour time points
Source text: Cell viability and cell morphology were examined to evaluate the toxicity of excipients on retinal pigment epithelial cells. The human retina cell line used in these experiments is the ARPE-19 cell line (human adult-derived retinal pigmented epithelial cells). […] They form tight-junctions with transepithelial resistance of monolayers (Dunn K C et al., supra). From a molecular standpoint, it appears that ARPE-19 express a huge pattern of genes similar to those expressed by human RPE from fresh explant which could account for their physiological function (Klimanskaya I. et al., “Derivation and comparative assessment of retinal pigment epithelium from human embryonic stem cells using transcriptomics”, Cloning and Stem Cells, 2004, 6(3):217-45).
ARPE-19 cells are widely used as a retinal model that resemble physiological properties of RPE cells. Similar methods of culturing ARPE-19 cells and cytotoxicity assays can be found in Yeung et al., “Cytotoxicity of triamcinolone on cultured human retinal pigment epithelial cells: comparison with dexamethasone and hydrocortisone”, Jpn J. Ophthalmol, 2004; 48:236-242. Cell viability and cell morphology were examined using conventional colormetric and visual methods. Viability and morphology measurements were obtained at 24 hours, 48 hours, and 72 hours after exposure to an excipient composition.
To assess cell viability, mitochondrial metabolism was quantified through conventional colorometric assays (i.e., the MTT assay). This calorimetric assay utilizes 3-(4,5-dimethylthiazol-2-yl)-2,5-diphenyltetrazolium bromide (MTT) and correlates mitochondrial metabolism and cell viability through measurement of dehydrogenase activity which converts a substrate into crystal. More specifically, the assay measures the activity of living cells through mitochondrial dehydrogenases. When dissolved in culture cell medium, MTT solution appears dark orange. Mitochondrial dehydrogenases of viable cells degrade MTT by cleaving the tetrazolium ring yielding to formation of a purple formazan crystal, which is insoluble in water. Crystals are subsequently dissolved in isopropanol solution. A resulting purple solution is spectrophotometrically measured. Cell viability is relative to amount of formazan and calculated as a percentage of remaining treated compared to non-treated cells.
Results from the MTT assay were expressed as a percentage of cell viability calculated using the following equation: % cell viability=ODtest/ODcontrol×100.
For each experiment, one concentration was performed in triplicate. Each point was spectrophotometrically read twice. Average of readings was calculated, then average from these 3 values was determined.
After 3 experiments were independently completed under the same conditions, a graph was plotted with cell viability expressed as a function of concentration (dose response) and for various incubation period (time course). The IC50 was then estimated based on the graphed data.
More specifically, cell density in 24-multiwell plates was observed on the day of the experiment to check if confluence of the cells was reached. Aliquots of MTT concentrated solutions were removed from a freezer at −20° C. and thawed at room temperature. Cell medium was warmed at 37° C. before use. Appropriated tubes for diluting compounds were prepared. Higher concentrations of each excipient agent was prepared. Serial dilution was then performed in cell medium (DMEM:F12+10% FBS).
Cell culture medium in the 24-well plate was removed using vacuum-pump. Cells were then stimulated with 0.5 ml final volume for each concentration of one given excipient agent. Distribution of the excipient-containing solution was performed using automated pipet-aid in sterile environment (under PSM) or not depending on time of compounds and duration of incubation.
After stimulation, cells were replaced in a CO2 incubator for the required time of exposure.

ARPE-19 cells [4] = format: cell-based
Description: Cell morphology was visualized using light microscopy. Cell morphology observation using light microscopy permits determination of (i) cell number and density and (ii) whether or not cells in contact with an excipient agent display modified phenotype compared to a non-treated population of cells.
Cell morphology was analyzed in parallel by semi-quantitative scoring ranging from 5 to 1, from basal to lethal phenotype respectively, as shown in FIG. 23.
More specifically, cells were removed from an incubator for examination. Morphological shape of cells was visualized using a light microscope and CCD camera. Every 3 wells of a given concentration was observed through image analysis software. Then, a representative photograph describing the average appearance of cells was saved. The supernatant was either, kept for further predefined experiments to perform, or removed using vacuum-pump.
Resulting semi-quantitative scoring is represented as a function of time course and dose response. Score 5 : wild type phenotype of non-treated cells, 100% confluent adherent cells. This phenotype very much vary following post-seeding time. For example, at confluence ARPE-19 cells at 1 day appear well defined with visible outer membrane and dark grey cytoplasm. After 3 days of confluence, limits between cells become less visible and cells adopt a more hexagonal shape and constitute an epithelium-like uniform dense structure. Score 4: density <100%. Cell shape has changed, some spaces are present between cells, few cells possibly detached. Score 3: 80% <Cell density <40%. Spaces are sometimes present among cells, areas appears confluent while in others, cells detached. General cell shape starts showing non negligible alterations. Score 2: Cell density <50%. Cells adopt exclusively stressed appearance, presence of mass dead floating cells. Score 1: Cell density <10%. Presence of almost exclusively dead cells.
Based on quotation, each condition of the applied compound was given a score which allow to a morphology evolution profile to be prepared, ie. cell morphology as a function of compound concentration and time of exposure. […]

Substance | pH of excipient dilution ([1]; 0.1% in culture medium) | pH of excipient dilution ([1]; 0.5% in culture medium) | pH of excipient dilution ([1]; 1% in culture medium) | pH of excipient dilution ([1]; 5% in culture medium) | pH of excipient dilution ([1]; 10% in culture medium) | pH of excipient dilution ([1]; 20% in culture medium) | Osmolarity of excipient dilution ([2]; 0.1% in culture medium) | Osmolarity of excipient dilution ([2]; 0.5% in culture medium) | Osmolarity of excipient dilution ([2]; 1% in culture medium) | Osmolarity of excipient dilution ([2]; 5% in culture medium) | Osmolarity of excipient dilution ([2]; 10% in culture medium) | Decrease of cell viability (ARPE-19 cells [3]) | Reduction of cell survival (ARPE-19 cells [3]) | also measured
hydroxypropyl beta-cyclodextrin [Kleptose®] | 7.6 | 7.6 | 7.5 | 7.5 | 7.5 | 7.6 | 309 mOsm | 317 mOsm | 325 mOsm | 375 mOsm | 459 mOsm | about 40% | 20-30% | Osmolarity of excipient dilution ([2]; 20% in culture medium): 635 mOsm; Cell survival (% of the initial value) (ARPE-19 cells [3]; 1% (w/v)): about 70%; Cell survival (ARPE-19 cells [3]; 5% (w/v), 24 h): complete disappearance of living cells; also recorded: about 20%; IC50 (50% cell viability inhibition, MTT) (ARPE-19 cells [3]; ARPE-19, all incubation times 24-72 h, estimated from graph): about 2.2%; MTT IC50 (%) (ARPE-19 cells [3]; ARPE-19 cells, summary Table 3): 2.2-2.5%; Morphology limit concentration (%) (ARPE-19 cells [4]): 2.6-3%
hydroxypropyl gamma-cyclodextrin [Cavasol] | 7.6 | 7.6 | 7.6 | 7.6 | 7.6 | 7.6 |  |  |  |  |  |  | ≤ 10% | Effect on both cell parameters (viability, morphology) (ARPE-19 cells [3]): no measurable effect on both cell parameters; Viable cells (ARPE-19 cells [3]): approximately 80%; Percentage of living cells (ARPE-19 cells [3]; 0.05 to 10%, after recovery (later than 24 h)): > 80%; Cell survival (% of the initial value) (ARPE-19 cells [3]; 10% (w/v)): about 80%; IC50 (cell viability), statement in words (ARPE-19 cells [3]; at the tested concentrations and incubation times): not possible to determine the IC50
hydroxypropylmethyl cellulose [HPMC] |  |  |  |  |  |  |  |  |  |  |  | 20-40% |  | Cell viability, experiment 3 (ARPE-19 cells [3]): 77.4%
sulfobutyl ether 4 beta-cyclodextrin [Captisol] | 7.6 | 7.6 | 7.6 | 7.6 | 7.7 | 7.7 | 310 mOsm | 318 mOsm | 333 mOsm | 408 mOsm | 518 mOsm |  | 10-20% | Osmolarity of excipient dilution ([2]; 20% in culture medium, listed as Sulfobutylether 4 beta-CD): far exceeds physiological osmolarity range; Osmolarity of excipient dilution ([2]; 20% in culture medium, listed as Sulfobutylether 4beta-CD): 710 mOsm; Cell survival (% of the initial value) (ARPE-19 cells [3]; 5% (w/v)): 70-80%; Cell survival (ARPE-19 cells [3]; 10% (w/v), 24 hour time point): 50-60%
